How the values were obtained:
rat cortical neurons = experiment: Neurite outgrowth in primary neuronal cultures assay; type: cell-based; parameters: key: A: Statistically significant mean increase as a percent of DMSO control at 10 μM or less; B: No statistically significant mean increase as a percent of DMSO control at 10 μM or less; settings: 72h, vs DMSO control, 10 μM or less
Source text: Neurite Outgrowth Assay. Neurite Outgrowth in Primary Neuronal Cultures Assay. Changes in the pattern of neurite outgrowth have been implicated in psychiatric and neurodegenerative disorders as well as traumatic injuries. The discovery of new compounds that can positively affect neuritogenesis are important for developing new therapeutics for neurological diseases. Measurement of neurite outgrowth of rat cortical neurons using an automated image-based assay was used to determine the neuroplastic effects of the compounds of the present disclosure. The neurite outgrowth assay was performed at Neurofit SAS (France) as described below.
Pregnant Wistar rats (Janvier; France) were used for the study. They were delivered 6 days before their use. Upon arrival at Neurofit animal facility, they were housed one per cage and maintained in a room with controlled temperature (21-22° C.) and a reversed light-dark cycle (12 h/12h; lights on: 17:30-05:30; lights off: 05:30-17:30) with food and water available ad libitum.
Female Wistar rats of 17 days gestation were killed by cervical dislocation and the fetuses were removed from the uterus. Their brains were placed in ice-cold medium of Leibovitz (L15, Gibco, Fisher bioblock, France). Cortices were dissected and meninges were carefully removed. The cortical neurons were dissociated by trypsinization for 30 min at 37° C. (trypsin-EDTA, Gibco) in presence of 0.1 mg/ml DNAse I (Roche, France). The reaction was stopped by addition of Dulbecco's Modified Eagle Medium (DMEM; Gibco) with 10% of fetal bovine serum (FBS; Gibco). The suspension was triturated with a 10-ml pipette and using a needle syringe 21G and centrifuged at 350×g for 10 min at room temperature. The pellet of dissociated cells was resuspended in a medium consisting of Neurobasal (Gibco) supplemented with 2% B27 supplement (Gibco), 0.5 mM L-Glutamine (Gibco), an antibiotic-antimicotic mixture. Viable cells were counted in a Neubauer cytometer using the trypan blue exclusion test (Sigma). Cells were seeded at a density of 10000 cells per well in 96-well plate (Costar) precoated with poly-L-lysine. Test compound at different concentrations were added to the cultures. Donepezil (positive control) was tested at 250 nM.
After 72h (3 days) of plating, cultures were fixed with paraformaldehyde in PBS (4%, Sigma) for 30 min at 4° C. Then, cells were successively permeabilized with 0.1% Triton X100 for 30 min, saturated with PBS containing 3% of BSA and were incubated 1 h with anti-beta III tubulin antibody (Sigma) at 1/10 000 in PBS containing 0.5% of BSA. Cells were washed three times with PBS containing 0.5% of BSA, and they were incubated 1 h with goat anti-mouse antibody coupled with AF488 (Invitrogen A11001) diluted at 1/1000 in PBS containing 0.5% of BSA. Finally, nuclei were staining with DAPI 1 mg/ml at 1/1000 in PBS containing 0.5% of BSA. After rinsing with PBS, the plate was filmed and neurite networks were examined and analyzed using High-Content Screening (CellInsight, Thermo Scientific). The average number of neurites per neuron and the average total length of neurites per neuron were the main parameters analyzed. Analysis of data was performed using analysis of variance (ANOVA). The Fisher's Protected Least Significant Difference test was used for multiple comparisons. A p value ≤0.05 was considered significant. The software used is StatView 5.0 from SAS Institut.

5-HT2A [1] = biological target: T1, 5-HT2A (Homo sapiens, UniProt P28223); experiment: Serotonin 5-HT2A in vitro cellular IPOne agonism assay (HTRF); type: cell-based; parameters: host or cells: CHO-K1; settings: CHO-K1 cells, 60 min
Description: Serotonin 5-HT2AIn Vitro Cellular IPOne Agonism Assay. The 5-HT2AIPOne HTRF assay was performed at Epics Therapeutics S. A. (Belgium, FAST-0505I) using conventional methods. Briefly, CHO—K1 cells expressing human recombinant 5-HT2A receptor grown to mid-log phase in culture media without antibiotics were detached with PBS-EDTA, centrifuged, and resuspended in medium without antibiotics buffer. 20,000 cells were distributed in a 96 well plate and incubated overnight at 37° C. with 5% Co2.
For agonist testing, the medium was removed and 20 μl of assay buffer plus 20 μl of test compound or reference agonist were added in each well. The plate was incubated for 60 min. at 37° C. with 5% CO2.
(§1) After addition of the lysis buffer containing IP1-d2 and anti-IP1 cryptate detection reagents, plates were incubated 1-hour at room temperature, and fluorescence ratios were measured according to the manufacturer specification, with the HTRF kit.

5-HT2A [2] = biological target: T1, 5-HT2A; experiment: Serotonin 5-HT2A in vitro radioligand binding competition assay ([3H]-DOI); parameters: purchased Epics Therapeutics S. A. (Belgium), contract assay FAST-0505B; host or cells: membrane extracts; settings: [3H]-DOI competition, membrane extracts; read-out: 5HT2A R[…] ACTIVITY
Description: Serotonin 5-HT2AIn Vitro Radioligand Binding Competition Assay. The 5-HT2A radioligand binding competition assay was performed at Epics Therapeutics S. A. (Belgium, FAST-0505B) using conventional methods. Briefly, competition binding is performed in duplicate in the wells of a 96 well plate (Master Block, Greiner, 786201) containing binding buffer (optimized for each receptor), membrane extracts (amount of protein/well optimized for each receptor), radiotracer [3H]-DOI (final concentration optimized for each receptor) and test compound. Nonspecific binding was determined by co-incubation with 200-fold excess of cold competitor. The samples were incubated in a final volume of 0.1 ml at a temperature and for a duration optimized for each receptor and then filtered over filter plates. Filters were washed six times with 0.5 ml of ice-cold washing buffer (optimized for each receptor) and 50 µl of Microscint 20 (Packard) were added in each well. The plates were incubated 15 min on an orbital shaker and then counted with a TopCount™ for 1 min/well.

5-HT2A [3] = biological target: T1, 5-HT2A; experiment: Serotonin 5-HT2A in vitro cellular IPOne antagonism assay (HTRF); type: cell-based; parameters: host or cells: CHO-K1; settings: CHO-K1 cells, reference agonist a-Me-5HT
Description: Serotonin 5-HT2AIn Vitro Cellular IPOne Antagonism Assay. The 5-HT2AIPOne HTRF assay was performed at Epics Therapeutics S. A. (Belgium, FAST-0505I) in antagonism mode using conventional methods. Briefly, CHO—K1 cells expressing human recombinant 5-HT2A receptor grown to mid-log phase in culture media without antibiotics were detached with PBS-EDTA, centrifuged, and resuspended in medium without antibiotics buffer. 20,000 cells were distributed in a 96 well plate and incubated overnight at 37° C. with 5% Co2.
For antagonist testing, a reference agonist a-Me-5HT was added and fluorescence signal monitored for several minutes, followed by addition of 20 μl of assay buffer plus 20 μl of test compound or reference antagonist ketanserin, in each well. The plate was incubated for 60 min. at 37° C. with 5% CO2.
as §1

T1 sequence (P28223 whole entry): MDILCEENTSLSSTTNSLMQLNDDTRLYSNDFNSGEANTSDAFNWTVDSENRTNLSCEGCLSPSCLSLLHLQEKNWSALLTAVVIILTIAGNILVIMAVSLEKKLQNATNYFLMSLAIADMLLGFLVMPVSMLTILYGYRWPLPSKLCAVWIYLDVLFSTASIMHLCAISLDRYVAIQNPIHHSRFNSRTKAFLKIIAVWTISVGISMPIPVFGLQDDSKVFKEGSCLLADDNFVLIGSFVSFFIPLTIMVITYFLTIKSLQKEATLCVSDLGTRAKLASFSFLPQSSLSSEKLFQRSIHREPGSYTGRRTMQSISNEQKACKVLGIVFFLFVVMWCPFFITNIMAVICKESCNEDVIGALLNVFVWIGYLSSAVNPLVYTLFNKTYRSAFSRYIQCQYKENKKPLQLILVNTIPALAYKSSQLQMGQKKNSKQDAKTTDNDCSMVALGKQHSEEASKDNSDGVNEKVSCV

Row | Compound | INCREASE IN NEURITE BRANCHING (rat cortical neurons) | INCREASE IN NEURITE LENGTH (rat cortical neurons) | INCREASE IN NEURITE NUMBER (rat cortical neurons) | EC50 (5-HT2A [1]) | IC50 (5-HT2A [2]) | IC50 (5-HT2A [3])
1 | COc1ccc2c3c([nH]c2c1)CCN1CCCC1C3 (centres unmarked) [Compound 1, 9-methoxy-1,2,3,5,6,7,12,12a-octahydropyrrolo[1′,2′:1,7]azepino[4,5-b]indole] | B | B | B | > 10 µM | 1 to 10 µM | –
2 | COc1ccc2c3c([nH]c2c1)CC1CCCN1CC3 (centres unmarked) [Compound 2, 9-methoxy-1,2,3,5,6,11,12,12a-octahydropyrrolo[1′,2′:1,2]azepino[4,5-b]indole] | A | A | B | > 10 µM | > 10 µM | –
3 | Cn1c2c(c3ccccc31)CCN1CCCC1C2 (centres unmarked) [Compound 3, 11-methyl-1,2,3,5,6,11,12,12a-octahydropyrrolo[1′,2′:1,2]azepino[4,5-b]indole] | B | A | B | 1 to 10 µM | 0.101 to 1 µM | 0.101 to 1 µM
4 | c1ccc2c3c([nH]c2c1)CC1CCCN1CC3 (centres unmarked) [Compound 4, 1,2,3,5,6,11,12,12a-octahydropyrrolo[1′,2′;1,2]azepino[4,5-b]indole] | A | A | A | 0.101 to 1 µM | 0.101 to 1 µM | 0.101 to 1 µM
5 | COc1cccc2[nH]c3c(c12)CC1CCCN1CC3 (centres unmarked) [Compound 5, 11-methoxy-1,2,3,5,6,7,12,12a-octahydropyrrolo[1′,2′:1,7]azepino[4,5-b]indole] | B | A | B | 1 to 10 µM | 1 to 10 µM | –
6 | Cn1c2c(c3ccccc31)CC1CCCN1CC2 (centres unmarked) [Compound 6, 7-methyl-1,2,3,5,6,7,12,12a-octahydropyrrolo[1′,2′:1,7]azepino[4,5-b]indole] | B | A | B | > 10 µM | 0.101 to 1 µM | 0.101 to 1 µM
7 | c1ccc2c3c([nH]c2c1)CCN1CCCC1C3 (centres unmarked) [Compound 7, 1,2,3,5,6,7,12,12a-octahydropyrrolo[1′,2′:1,7]azepino[4,5-b]indole] | A | A | A | 1 to 10 µM | 0.101 to 1 µM | 0.101 to 1 µM
8 | FC(F)(F)c1ccc2c3c([nH]c2c1)CC1CCCN1CC3 (centres unmarked) [Compound 12, 9-(trifluoromethyl)-1,2,3,5,6,11,12,12a-octahydropyrrolo[1′,2′:1,2]azepino[4,5-b]indole] | A | A | B | > 10 µM | 1 to 10 µM | –
9 | FC(F)(F)Oc1ccc2c3c([nH]c2c1)CC1CCCN1CC3 (centres unmarked) [Compound 13, 9-(trifluoromethoxy)-1,2,3,5,6,11,12,12a-octahydropyrrolo[1′,2′;1,2]azepino[4,5-b]indole] | B | A | B | > 10 µM | 1 to 10 µM | 0.101 to 1 µM
10 | COc1ccc2c3c([nH]c2c1)C[C@@H]1CCCN1CC3 [Compound 17, (S)-9-methoxy-1,2,3,5,6,11,12,12a-octahydropyrrolo[1′,2′:1,2]azepino[4,5-b]indole] | A | A | A | > 10 µM | > 10 µM | > 10 µM
11 | COc1ccc2c3c([nH]c2c1)C[C@H]1CCCN1CC3 [Compound 18, (R)-9-methoxy-1,2,3,5,6,11,12,12a-octahydropyrrolo[1′,2′:1,2]azepino[4,5-b]indole] | A | A | A | > 10 µM | > 10 µM | 0.101 to 1 µM
12 | c1ccc2c3c([nH]c2c1)C[C@@H]1CCCN1CC3 [Compound 19, (S)-1,2,3,5,6,11,12,12a-octahydropyrrolo[1′,2′:1,2]azepino[4,5-b]indole] | A | A | A | 0.101 to 1 µM | 0.101 to 1 µM | 0.101 to 1 µM
